Experimental data: ChEMBL document CHEMBL4184324, “Ligand Desolvation Steers On-Rate and Impacts Drug Residence Time of Heat Shock Protein 90 (Hsp90) Inhibitors” (J Med Chem, 2018)

Target: Heat shock protein HSP90 (Homo sapiens, UniProt P07900+P08238)
Assay: Binding affinity to recombinant N-terminal Hsp90 (unknown origin) by SPR method
Format: protein assay

| Structure (SMILES) | Kd [nM] |
| --- | --- |
| CC(=O)N1CCc2ccc(N(C)C(=O)c3cc4c(Cc5cccc(C)c5)n[nH]c4cc3O)cc21 | 51.8 |
| CN(C(=O)c1cc2c(CC3CCCC3)n[nH]c2cc1O)c1ccc(N2CCOCC2)cc1 | 7.8 |
| COc1ccc(N(C)C(=O)c2cc3c(Cc4cccc(C)c4)n[nH]c3cc2O)cc1Cl | 17.2 |
| CC(=O)N1CCc2cc(N(C)C(=O)c3cc4c(Cc5cccc(C)c5)n[nH]c4cc3O)ccc21 | 50.9 |
| CN(C(=O)c1cc2c(CC3CCCCC3)n[nH]c2cc1O)c1ccc(N2CCOCC2)cc1 | 42 |
| Cc1cccc(Cc2n[nH]c3cc(O)c(C(=O)N(C)c4ccc(CN5CCOCC5)cc4)cc23)c1 | 33.4 |
| Cc1cccc(Cc2n[nH]c3cc(O)c(C(=O)N(C)c4ccc(OCCCC#N)cc4)cc23)c1 | 32.5 |
| Cc1ccccc1-n1c(-c2cc(C(=O)N(C)Cc3cccc(-c4cccnc4)c3)c(O)cc2O)n[nH]c1=O | 34.6 |
| CCCCc1n[nH]c2cc(O)c(C(=O)N(C)c3ccc(N4CCOCC4)cc3)cc12 | 6.6 |
| COc1cccc(N(C)C(=O)c2cc3c(Cc4cccc(C)c4)n[nH]c3cc2O)c1 | 43 |
| CN(C(=O)c1cc2c(C(=O)N3CCCCC3)n[nH]c2cc1O)c1ccc(N2CCOCC2)cc1 | 42 |
| CCCc1n[nH]c2cc(O)c(C(=O)N(C)c3ccc(N4CCOCC4)cc3)cc12 | 5.4 |
| Cc1cccc(Cc2n[nH]c3cc(O)c(C(=O)N(C)c4ccc(COCCN(C)C)cc4)cc23)c1 | 11.5 |
| Cc1cccc(Cc2n[nH]c3cc(O)c(C(=O)N(C)c4ccc5c(c4)OCCO5)cc23)c1 | 38.6 |
| COc1cccc(Cc2n[nH]c3cc(O)c(C(=O)N(C)c4ccc(N5CCOCC5)cc4)cc23)c1 | 12 |

More lines, now with the values ahead:

| Kd [nM] | Structure (SMILES) |
| --- | --- |
| 25.4 | CC(=O)c1ccc(N(C)C(=O)c2cc3c(Cc4cccc(C)c4)n[nH]c3cc2O)cc1 |
| 89 | Cc1cccc(Cc2n[nH]c3cc(O)c(C(=O)N(C)c4cccc(Cl)c4)cc23)c1 |
| 73 | Cc1cccc(Cc2n[nH]c3cc(O)c(C(=O)N(C)c4ccc(F)cc4)cc23)c1 |
| 24 | COc1ccc(N(C)C(=O)c2cc3c(Cc4cccc(C)c4)n[nH]c3cc2O)cc1 |
| 70 | Cc1cccc(Cc2n[nH]c3cc(O)c(C(=O)N(C)c4cccc(C)c4)cc23)c1 |
| 16 | Cc1cccc(Cc2n[nH]c3cc(O)c(C(=O)N(C)c4ccc(CNS(C)(=O)=O)cc4)cc23)c1 |
| 155.3 | Cc1cccc(Cc2n[nH]c3cc(O)c(C(=O)N(C)c4ccc(Br)cc4)cc23)c1 |
| 61.2 | Cc1cccc(Cc2n[nH]c3cc(O)c(C(=O)N(C)c4cccc(F)c4)cc23)c1 |
| 152.9 | Cc1cccc(Cc2n[nH]c3cc(O)c(C(=O)N(C)c4ccc(Cl)cc4)cc23)c1 |
